Data published in paper PMC12455130, “Multifunctional molecular agent for tau-targeted combinational therapy of Alzheimer’s disease” (The Journal of Biological Chemistry, 2025).

Assays:
[1] = UV-visible titration and Job's plot, coordination to Cu2+; type: physicochemical; details: for Job's plot isosbestic point, mol fraction of Cu2+: 5 mM total in DMSO; for coordination stoichiometry with Cu2+: Job's method, 5 mM in DMSO
Method: The UV–visible spectrum was used to reveal their coordination properties to Cu^2+. […] The increased absorption at 481 nm and 475 nm (Fig. 3, A and B, inset) definitely indicated the complexation of 4GA–Cu^2+ and 2GA–Cu^2+, respectively. The coordination stoichiometry of 4GA and 2GA with Cu^2+ was determined by Job’s plot analysis (Fig. 3, C and D). […] However, their macrocyclic precursors (cyclen and N-methylated cyclen 2ME]) were evaluated to coordinate with Cu^2+ by 1:1 mode (Fig. S9). The different coordination mode with Cu^2+ was supposed to be the synergistic coordination effects of galloyl side arms, in addition to the central azacrown structure.
The chelating studies were performed on Hitachi U-2900 UV–visible spectrophotometer with a 10-mm quartz cell. For titration experiment, the UV absorption of test compound (1 mM in DMSO) was recorded in the presence of CuCl2 (0–6 equivalents of Cu^2+ for 4GA, 0–5 equivalents of Cu^2+ for 2GA, respectively). For Job’s method, a series of solution was prepared in which the total concentration of compound and Cu^2+ was fixed (5 mM in DMSO), but their proportions of ether component varied between 0% and 100%, and the UV spectra were analyzed to determine the ratio of ligand–Cu^2+.
Figure S9. The chemical structure of cyclen derivates (upper), and the determination of the stoichiometry of complex (A) cyclen-Cu^2+, (B) 1ME-Cu^2+, (C) 2ME-Cu^2+, (D) 3ME-Cu^2+, (E) 4ME-Cu^2+ (5 mM) by Job’s method.

SK-N-SH cells = experiment: Intracellular ROS measurement (DCFH, flow cytometry and CLSM); type: cell-based, human; details: 15 μM R3, 3.8 μM Cu2+, 10 μM compound; for ROS in SK-N-SH cells generated by R3–Cu2+ complex (flow cytometry): 24 h
Method: The flow cytometry and confocal laser scanning microscopy (CLSM) were used to show the intracellular ROS production. […] Consequently, the reductive phenolic hydroxyl groups might be a key factor for scavenging ROS triggered by R3–Cu^2+ complex.
SK-N-SH cells were seeded on a 12-well plate at a density of 1 × 10^5/well and incubated at 37 °C for 24 h, followed by treating with 15 μM R3 in the presence or the absence of 3.8 μM Cu^2+ in FBS-free DMEM. Two hours later, 10 μM 4GA/2GA/4ME/GA was added to the medium, respectively. After 24 h, the culture medium was removed, and 10 μM DCFH diacetate in FBS-free DMEM was added and incubated for 45 min at 37 °C. Samples were washed three times with PBS, and 4% polyformaldehyde was added and fixed at room temperature for 20 min. Cells were observed under a CLSM. For quantitative analysis, cells were harvested and washed three times with ice-cold PBS and resuspended in PBS. The fluorescence intensity of DCFH was analyzed by flow cytometry (CytoFLEX LX).

[2] = Stability in Hepes by UV-visible absorption; type: physicochemical; details: Hepes 50 mM, pH 7.4, 0.2% DMSO; 10 μM, 37 °C; 72 h
Method: (§1) Therefore, in the following experiments, they were first dissolved in DMSO and further diluted in an excess of buffer. […] Logically, 1,4,7,10-tetramethyl-1,4,7,10-tetraazacyclododecane (4ME) and GA (compound structure was shown in Fig. S1) are considered as the precursor of 4GA and 2GA and therefore used as a comparative study to confirm whether the ancillary ligand had any effect on aggregation.
Figure S8. The stability of 4GA (A) and 2GA (B) in HEPES (50 mM, pH 7.4, 0.2% DMSO) verified by UV-vis absorption spectroscopy. All sample concentrations were 10 μM and kept at 37℃ in atmosphere.

Solubility = type: physicochemical; details: for solubility in polar organic solvent: DMSO
Source text: as §1

| SMILES | Job's plot isosbestic point, mol fraction of Cu2+ [1] | coordination stoichiometry with Cu2+ [1] | CLSM green fluorescence (intracellular ROS) (SK-N-SH cells) | ROS in SK-N-SH cells generated by R3–Cu2+ complex (flow cytometry) (SK-N-SH cells) | stability in buffer [2] | solubility in water (Solubility) | solubility in polar organic solvent (Solubility) |
| --- | --- | --- | --- | --- | --- | --- | --- |
| O=C(c1cc(O)c(O)c(O)c1)N1CCN(C(=O)c2cc(O)c(O)c(O)c2)CCN(C(=O)c2cc(O)c(O)c(O)c2)CCN(C(=O)c2cc(O)c(O)c(O)c2)CC1 [4GA, (1,4,7,10-tetraazacyclododecane-1,4,7,10-tetrayl)tetrakis((3,4,5-trihydroxyphenyl)methanone)] | 0.7 mol fraction | can bind with two Cu^2+ ions | almost disappeared | appreciably decreased, almost to the control level | remain stable at 72 h | slightly soluble in water | soluble in polar organic solvent such as dimethyl sulfoxide (DMSO) |
| CN1CCN(C)CCN(C)CCN(C)CC1 [4ME, 1,4,7,10-tetramethyl-1,4,7,10-tetraazacyclododecane, reference compound] |  |  |  | did not decrease |  |  |  |
| O=C(O)c1cc(O)c(O)c(O)c1 [GA, gallic acid, reference compound] |  |  | almost disappeared | appreciably decreased, almost to the control level |  |  |  |
| CN1CCN(C(=O)c2cc(O)c(O)c(O)c2)CCN(C)CCN(C(=O)c2cc(O)c(O)c(O)c2)CC1 [2GA, (4,10-dimethyl-1,4,7,10-tetraazacyclododecane-1,7-diyl)bis((3,4,5-trihydroxyphenyl)methanone)] | 0.7 mol fraction | can bind with two Cu^2+ ions | almost disappeared | appreciably decreased, almost to the control level | remain stable at 72 h | slightly soluble in water | soluble in polar organic solvent such as dimethyl sulfoxide (DMSO) |
